From ChEMBL document CHEMBL4354864, “Bicyclic α-Iminophosphonates as High Affinity Imidazoline I2 Receptor Ligands for Alzheimer's Disease” (J Med Chem, 2020)
≈ marks a conversion by molar mass, not a printed value. Calls of active or inactive are those of the source. No cut-off for these calls is given here.

Legend:
Mus musculus [1] = test: Cognitive enhancing effect in mouse model of 5xFAD assessed as increase in recognition memory at 5 mg/kg, po administered for 28 days and measured after 2 hrs of last dosage by novel object recognition test; assay type: functional, organism-based
Mus musculus [2] = test: Antineuroinflammatory activity in mouse model of 5xFAD assessed as reduction in H2O2 level at 5 mg/kg, po administered for 4 weeks; assay type: functional, organism-based
HeLa [3] = test: Cytotoxicity against human HeLa cells assessed as reduction in cell viability at 100 uM incubated for 3 to 5 days by colorimetric analysis; assay type: cell-based
[4] = Solubility of compound in 99% PBS buffer incubated for 2 hrs by nephelometry; assay type: physicochemical
[5] = Displacement of [3H]2-BFI from I2IR in Sprague-Dawley rat brain cortex incubated for 45 mins by liquid scintillation spectrometry
MT4 [6] = test: Cytotoxicity against human MT4 cells assessed as effect on cell morphology at 100 uM incubated for 3 to 5 days by microscopic analysis; assay type: cell-based; settings: mt4, 100 µM
[7] = Solubility of compound in 1% DMSO incubated for 2 hrs by nephelometry; assay type: physicochemical
HeLa [8] = test: Cytotoxicity against human HeLa cells assessed as effect on cell morphology at 100 uM incubated for 3 to 5 days by microscopic analysis; assay type: cell-based
Vero [9] = test: Cytotoxicity against monkey Vero cells assessed as reduction in cell viability at 100 uM incubated for 3 to 5 days by colorimetric analysis; assay type: cell-based; settings: chlorocebus sabaeus
Mus musculus [10] = test: Antineuroinflammatory activity in mouse model of 5xFAD assessed as reduction in sAPPbeta expression at 5 mg/kg, po administered for 4 weeks by Western blot analysis; assay type: functional, organism-based
MT4 [11] = test: Cytotoxicity against human MT4 cells assessed as reduction in cell viability at 100 uM incubated for 3 to 5 days by colorimetric analysis; assay type: cell-based; settings: mt4, 100 µM
MDCK [12] = test: Cytotoxicity against dog MDCK cells assessed as effect on cell morphology at 100 uM incubated for 3 to 5 days by microscopic analysis; assay type: cell-based, Canis lupus familiaris
[13] = Solubility of compound in water incubated for 2 hrs by nephelometry; assay type: physicochemical; settings: buffer
Mus musculus [14] = test: Cognitive enhancing effect in mouse model of 5xFAD assessed as increase in recognition memory at 5 mg/kg, po administered for 28 days and measured after 24 hrs of last dosage by novel object recognition test; assay type: functional, organism-based
Cytochrome P450 1A2 = target: T1, Cytochrome P450 1A2 (Homo sapiens, UniProt P05177); test: Inhibition of recombinant human CYP1A2 at 10 uM using 3-cyano-7-ethoxycoumarin as substrate incubated for 5 mins followed by substrate addition by fluorescence based assay; assay type: ADME; settings: recombinant enzyme
T1 sequence (P05177 whole entry): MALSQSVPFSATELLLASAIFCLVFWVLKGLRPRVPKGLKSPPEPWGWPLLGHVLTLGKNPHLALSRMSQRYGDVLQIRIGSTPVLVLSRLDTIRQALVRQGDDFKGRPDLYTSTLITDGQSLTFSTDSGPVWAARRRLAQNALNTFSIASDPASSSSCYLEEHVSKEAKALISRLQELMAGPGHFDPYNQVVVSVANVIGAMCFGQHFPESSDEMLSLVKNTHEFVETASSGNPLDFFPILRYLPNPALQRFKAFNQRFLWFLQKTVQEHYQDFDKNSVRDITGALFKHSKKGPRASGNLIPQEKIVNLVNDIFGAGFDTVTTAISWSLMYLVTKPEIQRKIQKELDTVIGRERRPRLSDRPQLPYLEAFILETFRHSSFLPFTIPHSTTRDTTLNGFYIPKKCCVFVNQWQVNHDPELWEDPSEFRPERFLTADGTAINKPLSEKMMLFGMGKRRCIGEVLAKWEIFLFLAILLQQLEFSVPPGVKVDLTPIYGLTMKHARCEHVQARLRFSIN

[15] = Displacement of [3H]2-BFI from I2IR in Swiss mouse brain cortex incubated for 45 mins by liquid scintillation spectrometry
[16] = Cytotoxicity against human MRC5 cells assessed as reduction in cell viability incubated for 3 to 5 days by colorimetric analysis; assay type: cell-based
[17] = Stability in rat liver microsomes at 5 uM incubated for 60 mins by UPLC-MS/MS analysis; assay type: ADME, Microsome; settings: 1 h
Mus musculus [18] = test: Effect on FADD in CD-1 mouse at 20 mg/kg, ip measured after 1 hr by Westernblot analysis; assay type: functional
Mus musculus [19] = test: Antineuroinflammatory activity in mouse model of 5xFAD assessed as effect on Hmox1 expression at 5 mg/kg, po administered for 4 weeks by qRT-PCR analysis; assay type: functional, organism-based
Vero [20] = test: Cytotoxicity against monkey Vero cells assessed as effect on cell morphology at 100 uM incubated for 3 to 5 days by microscopic analysis; assay type: cell-based; settings: chlorocebus sabaeus
MDCK [21] = test: Cytotoxicity against dog MDCK cells assessed as reduction in cell viability at 100 uM incubated for 3 to 5 days by colorimetric analysis; assay type: cell-based, Canis lupus familiaris
[22] = Chemical stability of compound by HPLC analysis; assay type: physicochemical
Cytochrome P450 3A4 = Cytochrome P450 3A4 (Homo sapiens, UniProt P08684); test: Inhibition of recombinant human CYP3A4 at 10 uM using 7-benzyloxytrifluoromethyl coumarin (7-BFC) and Dibenzylfluorescein as substrate incubated for 5 mins followed by substrate addition by fluorescence based assay; assay type: ADME; settings: recombinant enzyme
Sequence of Cytochrome P450 3A4 (P08684 whole entry): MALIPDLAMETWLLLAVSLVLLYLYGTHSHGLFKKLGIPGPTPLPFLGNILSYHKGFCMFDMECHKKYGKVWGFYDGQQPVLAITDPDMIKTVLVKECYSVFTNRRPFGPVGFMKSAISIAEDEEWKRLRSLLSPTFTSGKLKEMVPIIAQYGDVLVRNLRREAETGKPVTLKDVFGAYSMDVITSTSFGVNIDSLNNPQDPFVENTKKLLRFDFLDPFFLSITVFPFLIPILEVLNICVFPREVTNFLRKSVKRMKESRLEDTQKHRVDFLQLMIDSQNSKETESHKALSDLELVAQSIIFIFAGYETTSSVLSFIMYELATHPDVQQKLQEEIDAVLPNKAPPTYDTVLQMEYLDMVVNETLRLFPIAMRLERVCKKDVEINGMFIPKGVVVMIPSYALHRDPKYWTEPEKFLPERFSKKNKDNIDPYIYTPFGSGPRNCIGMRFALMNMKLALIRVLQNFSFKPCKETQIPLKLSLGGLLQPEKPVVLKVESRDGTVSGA

Mus musculus [23] = test: Antineuroinflammatory activity in mouse model of 5xFAD assessed as effect on iNOS expression at 5 mg/kg, po administered for 4 weeks by qRT-PCR analysis; assay type: functional, organism-based
Cytochrome P450 2C9 = Cytochrome P450 2C9 (Homo sapiens, UniProt P11712); test: Inhibition of recombinant human CYP2C9 at 10 uM using 7-methoxy-4-(trifluoromethyl)coumarin as substrate incubated for 5 mins followed by substrate addition by fluorescence based assay; assay type: ADME; settings: recombinant enzyme
Sequence of Cytochrome P450 2C9 (P11712 whole entry): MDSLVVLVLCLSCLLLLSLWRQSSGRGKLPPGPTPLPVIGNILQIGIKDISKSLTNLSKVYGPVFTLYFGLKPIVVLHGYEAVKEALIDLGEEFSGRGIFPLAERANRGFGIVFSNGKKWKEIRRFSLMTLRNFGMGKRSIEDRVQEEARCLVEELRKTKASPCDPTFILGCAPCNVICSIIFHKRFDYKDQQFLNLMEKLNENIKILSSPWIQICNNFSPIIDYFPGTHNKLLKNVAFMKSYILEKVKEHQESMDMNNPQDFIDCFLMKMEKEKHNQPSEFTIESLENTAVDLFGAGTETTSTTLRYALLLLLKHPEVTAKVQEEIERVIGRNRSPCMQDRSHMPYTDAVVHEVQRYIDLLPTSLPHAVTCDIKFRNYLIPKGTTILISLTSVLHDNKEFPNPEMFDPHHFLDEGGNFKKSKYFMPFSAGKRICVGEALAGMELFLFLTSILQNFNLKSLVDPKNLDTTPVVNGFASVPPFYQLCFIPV

Mus musculus [24] = test: Antineuroinflammatory activity in mouse model of 5xFAD assessed as reduction in TNFalpha expression at 5 mg/kg, po administered for 4 weeks by qRT-PCR analysis; assay type: functional, organism-based
Cytochrome P450 2C19 = Cytochrome P450 2C19 (Homo sapiens, UniProt P33261); test: Inhibition of recombinant human CYP2C19 at 10 uM using 3-cyano-7-ethoxycoumarin as substrate incubated for 5 mins followed by substrate addition by fluorescence based assay; assay type: ADME; settings: recombinant enzyme
Sequence of Cytochrome P450 2C19 (P33261 whole entry): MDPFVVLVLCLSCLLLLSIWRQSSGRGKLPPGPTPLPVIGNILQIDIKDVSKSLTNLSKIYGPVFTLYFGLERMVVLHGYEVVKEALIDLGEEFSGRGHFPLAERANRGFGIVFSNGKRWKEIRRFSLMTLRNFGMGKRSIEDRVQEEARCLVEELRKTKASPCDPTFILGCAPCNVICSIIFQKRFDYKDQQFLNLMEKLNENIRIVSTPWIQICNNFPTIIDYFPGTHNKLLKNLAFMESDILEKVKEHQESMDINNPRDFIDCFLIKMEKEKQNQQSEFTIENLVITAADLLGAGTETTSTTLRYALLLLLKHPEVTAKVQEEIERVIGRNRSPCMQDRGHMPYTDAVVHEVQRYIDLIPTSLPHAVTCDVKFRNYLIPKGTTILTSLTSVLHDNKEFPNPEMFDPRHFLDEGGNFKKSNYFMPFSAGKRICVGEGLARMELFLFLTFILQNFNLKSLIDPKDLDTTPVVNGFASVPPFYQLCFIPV

[25] = target: T2, Gastrin/cholecystokinin type B receptor (Homo sapiens, UniProt P32239); test: Displacement of [125I]CCK-8s from human CCKB incubated for 60 mins by scintillation counting method
T2 sequence (P32239 whole entry): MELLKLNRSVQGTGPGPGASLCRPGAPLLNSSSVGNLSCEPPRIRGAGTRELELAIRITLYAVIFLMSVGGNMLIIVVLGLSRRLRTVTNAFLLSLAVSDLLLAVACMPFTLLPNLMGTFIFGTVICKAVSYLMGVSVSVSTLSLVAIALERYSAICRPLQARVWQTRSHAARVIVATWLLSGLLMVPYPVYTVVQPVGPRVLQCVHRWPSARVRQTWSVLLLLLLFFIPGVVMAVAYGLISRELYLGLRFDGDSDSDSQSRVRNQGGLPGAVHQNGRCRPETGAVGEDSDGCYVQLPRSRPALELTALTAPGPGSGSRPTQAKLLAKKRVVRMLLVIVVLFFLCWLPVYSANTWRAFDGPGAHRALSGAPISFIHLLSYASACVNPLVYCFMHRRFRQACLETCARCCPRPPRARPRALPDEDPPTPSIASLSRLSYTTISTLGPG

For `CCOP(=O)(OCC)C1(c2ccccc2)N=CC2C(=O)N(c3ccc(F)c(Cl)c3)C(=O)C21` (racemic), the Activity (Mus musculus [1]) was “Active”, the Activity (Mus musculus [2]) was “Active” and the Activity (HeLa [3]) was “Non-Toxic”. For the same compound, the solubility kinetic at 2 h [4] was 92 µM (≈ 44.1 µg/mL), the pKi [5] was 6.92 and the Activity (MT4 [6]) was “Non-Toxic”. The solubility kinetic at 2 h [7] was 92 µM (≈ 44.1 µg/mL), the Activity (HeLa [8]) was “Non-Toxic” and the Activity (Vero [9]) was “Non-Toxic”. The Activity (Mus musculus [10]) was “Active”, the Activity (MT4 [11]) was “Non-Toxic” and the Activity (MDCK [12]) was “Non-Toxic”. The solubility [13] was “Soluble”, the Activity (Mus musculus [14]) was “Active” and the “inhibition (INH)” value (Cytochrome P450 1A2) was “Not Active”. The pKi [15] was 6.41, the CC50 [16] was over 100 µM and the Stability [17] was “Stable”. The Activity (Mus musculus [18]) was -30%, the Activity (Mus musculus [19]) was “Active” and the Activity (Vero [20]) was “Non-Toxic”. The Activity (MDCK [21]) was “Non-Toxic”, the Stability [22] was 100% and the “inhibition (INH)” value (Cytochrome P450 3A4) was “Not Active”. The Activity (Mus musculus [23]) was “Active”, the “inhibition (INH)” value (Cytochrome P450 2C9) was “Not Active” and the Activity (Mus musculus [24]) was “Active”. For the same compound, the “inhibition (INH)” value (Cytochrome P450 2C19) was “Not Active” and the IC50 [25] was over 10 µM.
